ChEMBL document CHEMBL6092147, “Design of inhibitors of SARS-CoV-2 papain-like protease deriving from GRL0617: Structure-activity relationships” (Bioorg Med Chem, 2024)

Assay: Inhibition of SARS-CoV-2 wild type papain-like protease (PLpro) C111S mutant extracted from Escherichia coli using LKGG-AMC as substrate incubated for 60 mins by fluorescence based analysis
Design: species or system Severe acute respiratory syndrome coronavirus 2

Row | Compound | IC50 [µM]
1 | Cc1ccc(NC(=O)NC(N)=O)cc1C(=O)N[C@H](C)c1cccc2ccccc12 | 5.1
2 | CCC(=O)Nc1ccc(C)c(C(=O)N[C@H](C)c2cccc3ccccc23)c1 | 6.4
